# Test results taken from patent publication US20110196383A1, “Atherosclerotic Plaque Dissolution Composition” (Atherolysis Medical, Inc, priority 2009, published 2011).
# Entries after “also recorded” stand apart in the source; their conditions may differ.
# System: atherosclerotic plaque of an atherosclerotic cadaveric superficial femoral artery
# Experiment: ex vivo dissolution of atherosclerotic plaque in cadaveric superficial femoral artery
# Parameters: species or system human
# Details: for dissolution of atherosclerotic plaque: exposure about ten minutes to about thirty minutes
# [1] = about 90% by weight, about 10% base composition
# [2] = about 99.9% by weight in the chemical composition, about 0.1% base composition
# [3] = about 20% by weight, about 80% base composition such as normal saline
# [4] = about 2.5% by weight, about 97% base composition
# [5] = about 98% by weight in the chemical composition, about 2% base composition
molecule,measurement,setting,value
"CC(=O)Oc1ccccc1C(=O)O [acetylsalicylic acid, reference compound]",dissolution of atherosclerotic plaque,"about 12% by weight in the chemical composition, about 88% base composition",showed effectiveness in dissolving atherosclerotic plaque; also recorded: dissolution of atherosclerotic plaque was noted
OCC(O)CO [glycerine],dissolution of atherosclerotic plaque,about 100% by weight in the chemical composition,showed effectiveness in dissolving atherosclerotic plaque; also recorded: dissolution of atherosclerotic plaque was noted
CCCCCCCCCCCC[N+](C)(C)CC(O)CS(=O)(=O)[O-] (centres unmarked) [lauryldimethyl hydroxysultaine],dissolution of atherosclerotic plaque,[1],dissolution of atherosclerotic plaque was noted
CO [methanol],dissolution of atherosclerotic plaque,[2],showed effectiveness in dissolving atherosclerotic plaque; also recorded: dissolution of atherosclerotic plaque was noted
"O=C1[C@H](CC[C@H](O)c2ccc(F)cc2)[C@@H](c2ccc(O)cc2)N1c1ccc(F)cc1 [ezetimibe, reference compound]",dissolution of atherosclerotic plaque,[3],dissolution of atherosclerotic plaque was noted
Cc1ccccc1 [toluene],dissolution of atherosclerotic plaque,"about 40% by weight, about 60% base composition",showed effectiveness in dissolving atherosclerotic plaque; also recorded: dissolution of atherosclerotic plaque was noted
CC(=O)O [acetic acid],dissolution of atherosclerotic plaque,"about 50% by weight, about 50% base composition",dissolution of atherosclerotic plaque was noted
CCO [ethanol],dissolution of atherosclerotic plaque,"about 94% by weight, about 6% base composition",dissolution of atherosclerotic plaque was noted
same,effectiveness in dissolving atherosclerotic plaque,concentration of about 94% to about 96%,showed effectiveness in dissolving atherosclerotic plaque
Oc1ccc(/C=C\c2cc(O)cc(O)c2)cc1 [cis-resveratrol],dissolution of atherosclerotic plaque,[4],dissolution of atherosclerotic plaque was noted
CCCCCCCC(=O)O [octanoic acid],dissolution of atherosclerotic plaque,[5],showed effectiveness in dissolving atherosclerotic plaque; also recorded: dissolution of atherosclerotic plaque was noted
O=C(O)[C@H](O)[C@@H](O)[C@H](O)[C@H](O)CO [gluconic acid],dissolution of atherosclerotic plaque,"about 80% by weight, about 20% base composition",dissolution of atherosclerotic plaque was noted
ClCCl [dichloromethane],dissolution of atherosclerotic plaque,"about 92% by weight, about 8% base composition",showed effectiveness in dissolving atherosclerotic plaque
same,dissolution of atherosclerotic plaque,"about 99.1% by weight, about 0.9% base composition",dissolution of atherosclerotic plaque was noted
CC(O)CO (centres unmarked) [propylene glycol],dissolution of atherosclerotic plaque,[2],showed effectiveness in dissolving atherosclerotic plaque; also recorded: dissolution of atherosclerotic plaque was noted
S=C=S [carbon disulfide],dissolution of atherosclerotic plaque,[1],showed effectiveness in dissolving atherosclerotic plaque; also recorded: dissolution of atherosclerotic plaque was noted
2-octane [Example 2-octane],dissolution of atherosclerotic plaque,[5],showed effectiveness in dissolving atherosclerotic plaque; also recorded: dissolution of atherosclerotic plaque was noted
C=C(C)[C@H]1CC=C(C)CC1 [d-limonene],dissolution of atherosclerotic plaque,[5],showed effectiveness in dissolving atherosclerotic plaque; also recorded: dissolution of atherosclerotic plaque was noted
CC(O)C(=O)O (centres unmarked) [lactic acid],dissolution of atherosclerotic plaque,[5],dissolution of atherosclerotic plaque was noted
"Oc1ccc(/C=C/c2cc(O)cc(O)c2)cc1 [resveratrol, 3,5,4′-trihydroxy-trans-stilbene]",effectiveness in dissolving atherosclerotic plaque,dissolved in water or an organic solvent in a concentration of about 0.1% to about 99.9%,showed effectiveness in dissolving atherosclerotic plaque
"CC(C)c1nc(N(C)S(C)(=O)=O)nc(-c2ccc(F)cc2)c1/C=C/[C@@H](O)C[C@@H](O)CC(=O)O [rosuvastatin, reference compound]",dissolution of atherosclerotic plaque,[3],dissolution of atherosclerotic plaque was noted
Oc1ccc(/C=C/c2cc(O)cc(O)c2)cc1 [trans-resveratrol],dissolution of atherosclerotic plaque,[4],dissolution of atherosclerotic plaque was noted
ClC(Cl)Cl [chloroform],dissolution of atherosclerotic plaque,"about 95% by weight, about 5% base composition",showed effectiveness in dissolving atherosclerotic plaque; also recorded: dissolution of atherosclerotic plaque was noted
